Data published in patent publication US12077503B2, “Substituted cyclic amides and their use as herbicides” (FMC CORPORATION, priority 2015, dated 2024).

What was measured:
Assay in all cases: Test C preemergence
Assay type in all cases: in vivo
[1] = tested on: barnyardgrass (Echinochloa crus-galli); conditions: for Plant response rating (scale of 0 to 100), Barnyardgrass: 0 is no effect, 100 is complete control
Summary of the method: (§1)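 Preemergence: sow in loam-sand soil and treat. Postemergence: grow in peat-moss/vermiculite medium to 2–18 cm (1–4 leaves) and spray. Compound in non-phytotoxic solvent with surfactant; keep in greenhouse 13–15 d; score visually against controls, 0 (none) to 100 (full control).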

[2] = tested on: morningglory (Ipomoea coccinea); conditions: for Plant response rating (scale of 0 to 100), Morningglory: 0 is no effect, 100 is complete control
Summary of the method: as §1

[3] = tested on: ryegrass, Italian (Italian ryegrass, Lolium multiflorum); conditions: for Plant response rating (scale of 0 to 100), Ryegrass, Italian: 0 is no effect, 100 is complete control
Summary of the method: as §1

[4] = tested on: wheat (winter wheat, Triticum aestivum); conditions: for Plant response rating (scale of 0 to 100), Wheat: 0 is no effect, 100 is complete control
Summary of the method: as §1

[5] = tested on: blackgrass (Alopecurus myosuroides); conditions: for Plant response rating (scale of 0 to 100), Blackgrass: 0 is no effect, 100 is complete control
Summary of the method: as §1

[6] = tested on: crabgrass, large (large crabgrass, Digitaria sanguinalis); conditions: for Plant response rating (scale of 0 to 100), Crabgrass, Large: 0 is no effect, 100 is complete control
Summary of the method: as §1

[7] = tested on: foxtail, giant (giant foxtail, Setaria faberii); conditions: for Plant response rating (scale of 0 to 100), Foxtail, Giant: 0 is no effect, 100 is complete control
Summary of the method: as §1

[8] = tested on: pigweed (Amaranthus retroflexus); conditions: for Plant response rating (scale of 0 to 100), Pigweed: 0 is no effect, 100 is complete control
Summary of the method: as §1

[9] = tested on: Galium (catchweed bedstraw, Galium aparine); conditions: for Plant response rating (scale of 0 to 100), Galium: 0 is no effect, 100 is complete control
Summary of the method: as §1

[10] = tested on: oilseed rape (Brassica napus); conditions: for Plant response rating (scale of 0 to 100), Oilseed Rape: 0 is no effect, 100 is complete control
Summary of the method: as §1

[11] = tested on: lambsquarters (Chenopodium album); conditions: for Plant response rating (scale of 0 to 100), Lambsquarters: 0 is no effect, 100 is complete control
Summary of the method: as §1

soybean (Glycine max) = conditions: for Plant response rating (scale of 0 to 100), Soybean: 0 is no effect, 100 is complete control
Summary of the method: as §1

[12] = tested on: waterhemp (common waterhemp, Amaranthus rudis); conditions: for Plant response rating (scale of 0 to 100), Waterhemp: 0 is no effect, 100 is complete control
Summary of the method: as §1

[13] = tested on: johnsongrass (Sorghum halepense); conditions: for Plant response rating (scale of 0 to 100), Johnsongrass: 0 is no effect, 100 is complete control
Summary of the method: as §1

[14] = tested on: velvetleaf (Abutilon theophrasti); conditions: for Plant response rating (scale of 0 to 100), Velvetleaf: 0 is no effect, 100 is complete control
Summary of the method: as §1

[15] = tested on: ragweed (common ragweed, Ambrosia elatior); conditions: for Plant response rating (scale of 0 to 100), Ragweed: 0 is no effect, 100 is complete control
Summary of the method: as §1

[16] = 62 g ai/ha, scale 0 to 100, 0 no effect, 100 complete control

Compound: CN1C[C@H](c2ccc(C(F)(F)F)cc2)[C@@H](C(=O)Nc2cccc(F)c2F)C1=O [Compound 623, (3S,4S)—N-(2,3-difluorophenyl)-1-methyl-2-oxo-4-[4-(trifluoromethyl)phenyl]-3-pyrrolidinecarboxamide]
- Plant response rating (scale of 0 to 100), Barnyardgrass ([1]; 8 g ai/ha): 90
- Plant response rating (scale of 0 to 100), Barnyardgrass ([1]; 16 g ai/ha): 90
- Plant response rating (scale of 0 to 100), Barnyardgrass ([1]; 31 g ai/ha): 90
- Plant response rating, Barnyardgrass [1, 16]: 95
- Plant response rating (scale of 0 to 100), Morningglory ([2]; 8 g ai/ha): 0
- Plant response rating (scale of 0 to 100), Morningglory ([2]; 16 g ai/ha): 0
- Plant response rating (scale of 0 to 100), Morningglory ([2]; 31 g ai/ha): 25
- Plant response rating, Morningglory [2, 16]: 15
- Plant response rating (scale of 0 to 100), Ryegrass, Italian ([3]; 8 g ai/ha): 0
- Plant response rating (scale of 0 to 100), Ryegrass, Italian ([3]; 16 g ai/ha): 20
- Plant response rating (scale of 0 to 100), Ryegrass, Italian ([3]; 31 g ai/ha): 45
- Plant response rating, Ryegrass, Italian [3, 16]: 55
- Plant response rating (scale of 0 to 100), Wheat ([4]; 8 g ai/ha): 20
- Plant response rating (scale of 0 to 100), Wheat ([4]; 16 g ai/ha): 0
- Plant response rating (scale of 0 to 100), Wheat ([4]; 31 g ai/ha): 40
- Plant response rating, Wheat [4, 16]: 35
- Plant response rating (scale of 0 to 100), Blackgrass ([5]; 8 g ai/ha): 0
- Plant response rating (scale of 0 to 100), Blackgrass ([5]; 16 g ai/ha): 40
- Plant response rating (scale of 0 to 100), Blackgrass ([5]; 31 g ai/ha): 60
- Plant response rating, Blackgrass [5, 16]: 90
- Plant response rating (scale of 0 to 100), Crabgrass, Large ([6]; 8 g ai/ha): 90
- Plant response rating (scale of 0 to 100), Crabgrass, Large ([6]; 16 g ai/ha): 90
- Plant response rating (scale of 0 to 100), Crabgrass, Large ([6]; 31 g ai/ha): 95
- Plant response rating, Crabgrass, Large [6, 16]: 95
- Plant response rating (scale of 0 to 100), Foxtail, Giant ([7]; 8 g ai/ha): 85
- Plant response rating (scale of 0 to 100), Foxtail, Giant ([7]; 16 g ai/ha): 90
- Plant response rating (scale of 0 to 100), Foxtail, Giant ([7]; 31 g ai/ha): 90
- Plant response rating, Foxtail, Giant [7, 16]: 90
- Plant response rating (scale of 0 to 100), Pigweed ([8]; 8 g ai/ha): 75
- Plant response rating (scale of 0 to 100), Pigweed ([8]; 16 g ai/ha): 85
- Plant response rating (scale of 0 to 100), Pigweed ([8]; 31 g ai/ha): 85
- Plant response rating, Pigweed [8, 16]: 85
- Plant response rating (scale of 0 to 100), Galium ([9]; 8 g ai/ha): 90
- Plant response rating (scale of 0 to 100), Galium ([9]; 16 g ai/ha): 85
- Plant response rating (scale of 0 to 100), Galium ([9]; 31 g ai/ha): 85
- Plant response rating, Galium [9, 16]: 90
- Plant response rating (scale of 0 to 100), Oilseed Rape ([10]; 8 g ai/ha): 80
- Plant response rating (scale of 0 to 100), Oilseed Rape ([10]; 16 g ai/ha): 0
- Plant response rating (scale of 0 to 100), Oilseed Rape ([10]; 31 g ai/ha): 30
- Plant response rating, Oilseed Rape [10, 16]: 85
- Plant response rating (scale of 0 to 100), Lambsquarters ([11]; 8 g ai/ha): 10
- Plant response rating (scale of 0 to 100), Lambsquarters ([11]; 16 g ai/ha): 30
- Plant response rating (scale of 0 to 100), Lambsquarters ([11]; 31 g ai/ha): 60
- Plant response rating, Lambsquarters [11, 16]: 50
- Plant response rating (scale of 0 to 100), Soybean (soybean (Glycine max); 8 g ai/ha): 0
- Plant response rating (scale of 0 to 100), Soybean (soybean (Glycine max); 16 g ai/ha): 0
- Plant response rating (scale of 0 to 100), Soybean (soybean (Glycine max); 31 g ai/ha): 0
- Plant response rating, Soybean (soybean (Glycine max); [16]): 0
- Plant response rating (scale of 0 to 100), Waterhemp ([12]; 8 g ai/ha): 45
- Plant response rating (scale of 0 to 100), Waterhemp ([12]; 16 g ai/ha): 75
- Plant response rating (scale of 0 to 100), Waterhemp ([12]; 31 g ai/ha): 85
- Plant response rating, Waterhemp [12, 16]: 90
- Plant response rating (scale of 0 to 100), Johnsongrass ([13]; 8 g ai/ha): 50
- Plant response rating (scale of 0 to 100), Johnsongrass ([13]; 16 g ai/ha): 15
- Plant response rating (scale of 0 to 100), Johnsongrass ([13]; 31 g ai/ha): 50
- Plant response rating, Johnsongrass [13, 16]: 70
- Plant response rating (scale of 0 to 100), Velvetleaf ([14]; 8 g ai/ha): 0
- Plant response rating (scale of 0 to 100), Velvetleaf ([14]; 16 g ai/ha): 0
- Plant response rating (scale of 0 to 100), Velvetleaf ([14]; 31 g ai/ha): 5
- Plant response rating, Velvetleaf [14, 16]: 60
- Plant response rating (scale of 0 to 100), Ragweed ([15]; 8 g ai/ha): 0
- Plant response rating (scale of 0 to 100), Ragweed ([15]; 16 g ai/ha): 20
- Plant response rating (scale of 0 to 100), Ragweed ([15]; 31 g ai/ha): 45
- Plant response rating, Ragweed [15, 16]: 75
